Columns and labels:
[1] = test system: bile acid β-glucosidase activity of GBA2; experiment: Bile acid β-glucosidase activity, liver microsomal enzyme from wild type mouse; type: biochemical
[2] = target: T1, bile acid β-glucosidase activity of GBA2 (Homo sapiens, UniProt Q9HCG7); experiment: Bile acid β-glucosidase activity, human enzyme expressed in COS-7-cells; type: biochemical; details: read-out: β-Glucosidase activity % of control
T1 construct: expressed in transfected cells; host or cells: COS-7
T1 sequence (Q9HCG7 1-927): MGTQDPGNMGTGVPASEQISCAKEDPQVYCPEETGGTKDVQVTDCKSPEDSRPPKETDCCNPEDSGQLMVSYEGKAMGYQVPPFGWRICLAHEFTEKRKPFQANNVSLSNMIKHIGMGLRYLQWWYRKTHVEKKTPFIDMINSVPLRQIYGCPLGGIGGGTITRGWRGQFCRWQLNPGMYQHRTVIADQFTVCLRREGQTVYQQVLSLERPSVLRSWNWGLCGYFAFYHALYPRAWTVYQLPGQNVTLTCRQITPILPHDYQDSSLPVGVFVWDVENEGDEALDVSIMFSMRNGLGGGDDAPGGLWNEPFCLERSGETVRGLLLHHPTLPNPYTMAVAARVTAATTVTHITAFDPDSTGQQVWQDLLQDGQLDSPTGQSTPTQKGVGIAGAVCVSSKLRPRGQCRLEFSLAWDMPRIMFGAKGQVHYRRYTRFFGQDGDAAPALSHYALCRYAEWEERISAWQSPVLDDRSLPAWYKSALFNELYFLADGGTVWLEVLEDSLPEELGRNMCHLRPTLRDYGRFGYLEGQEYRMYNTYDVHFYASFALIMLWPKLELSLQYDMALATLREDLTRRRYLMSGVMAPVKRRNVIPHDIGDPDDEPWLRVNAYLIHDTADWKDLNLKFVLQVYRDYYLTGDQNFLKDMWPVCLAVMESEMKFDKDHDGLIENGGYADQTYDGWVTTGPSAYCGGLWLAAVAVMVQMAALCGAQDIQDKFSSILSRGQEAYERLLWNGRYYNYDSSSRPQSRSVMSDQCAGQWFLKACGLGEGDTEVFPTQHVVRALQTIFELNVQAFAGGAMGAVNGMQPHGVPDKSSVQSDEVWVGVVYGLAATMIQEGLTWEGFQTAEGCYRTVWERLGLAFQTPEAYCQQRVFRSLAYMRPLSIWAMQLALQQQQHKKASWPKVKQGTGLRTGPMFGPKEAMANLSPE

[3] = target: T2, bile acid glucosyltransferase activity of GBA2 (Homo sapiens, UniProt Q9HCG7); experiment: Bile acid glucosyltransferase activity, human enzyme expressed in COS-7-cells; type: biochemical; details: read-out: Transferase activity % of control
T2 construct: expressed in transfected cells; host or cells: COS-7
T2 sequence (Q9HCG7 1-927): T1 sequence (Q9HCG7 1-927)

[4] = target: T3, bile acid β-glucosidase activity of GBA2 (Mus musculus, UniProt Q69ZF3); experiment: Bile acid β-glucosidase activity, murine enzyme expressed in COS-7-cells; type: biochemical; details: read-out: β-Glucosidase activity % of control
T3 construct: expressed in transfected cells; host or cells: COS-7
T3 sequence (Q69ZF3 1-918): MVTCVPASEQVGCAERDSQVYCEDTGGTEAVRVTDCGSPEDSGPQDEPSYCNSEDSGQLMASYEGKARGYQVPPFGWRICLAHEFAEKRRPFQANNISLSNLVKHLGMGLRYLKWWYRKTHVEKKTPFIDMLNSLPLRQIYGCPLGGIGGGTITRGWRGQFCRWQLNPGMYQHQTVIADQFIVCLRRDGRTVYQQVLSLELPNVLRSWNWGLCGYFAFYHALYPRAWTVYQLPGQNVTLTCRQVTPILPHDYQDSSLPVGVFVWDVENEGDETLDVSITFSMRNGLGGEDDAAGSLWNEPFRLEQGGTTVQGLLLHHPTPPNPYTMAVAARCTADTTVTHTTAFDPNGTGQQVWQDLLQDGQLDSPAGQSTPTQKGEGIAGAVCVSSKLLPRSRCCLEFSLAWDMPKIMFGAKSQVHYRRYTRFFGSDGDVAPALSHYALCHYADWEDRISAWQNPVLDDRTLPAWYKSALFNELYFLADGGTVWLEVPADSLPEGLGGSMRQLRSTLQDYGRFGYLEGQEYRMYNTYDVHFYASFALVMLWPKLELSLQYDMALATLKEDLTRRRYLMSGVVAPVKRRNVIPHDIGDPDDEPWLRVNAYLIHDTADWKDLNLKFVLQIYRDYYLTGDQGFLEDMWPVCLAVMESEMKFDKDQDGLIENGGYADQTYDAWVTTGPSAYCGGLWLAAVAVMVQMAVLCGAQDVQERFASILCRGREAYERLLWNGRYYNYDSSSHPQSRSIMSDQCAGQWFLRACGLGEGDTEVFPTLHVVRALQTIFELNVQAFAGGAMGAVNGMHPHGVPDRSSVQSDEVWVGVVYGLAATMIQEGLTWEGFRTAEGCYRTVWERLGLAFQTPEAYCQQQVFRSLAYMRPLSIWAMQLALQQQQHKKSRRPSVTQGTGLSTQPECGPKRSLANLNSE

[5] = test system: liver microsomal β-glucosidase activity from GBA2 (-/-) mice; experiment: Liver microsomal β-glucosidase activity from GBA2 (-/-) mice; type: biochemical; details: liver microsomes from GBA2 (-/-) mice
[6] = test system: GBA2; experiment: Summary statement on the screening for GBA2 antagonists; type: biochemical; details: summary of Example 22
[7] = target: T4, bile acid glucosyltransferase activity of GBA2 (Mus musculus, UniProt Q69ZF3); experiment: Bile acid glucosyltransferase activity, murine enzyme expressed in COS-7-cells; type: biochemical; design: expressed in transfected cells; host or cells: COS-7; details: read-out: Transferase activity % of control
T4 sequence (Q69ZF3 1-918): T3 sequence (Q69ZF3 1-918)

[8] = target: T4, bile acid glucosyltransferase activity of GBA2; experiment: Bile acid glucosyltransferase activity, liver microsomal enzyme from wild type mouse; type: biochemical; design: from tissue; host or cells: mouse liver microsomes (wild type); details: read-out: Transferase activity % of control
[9] = test system: mice; details: administration to mice; cited from earlier work
[10] = test system: rodents; details: administered to rodents; cited from earlier work

In the case of `CCCCCCCCCCCCN1C[C@H](O)[C@@H](O)[C@H](O)[C@H]1CO` [Dodecyl-dNM, dodecyldeoxynojirimycin], the “β-Glucosidase activity % of control” value ([1]; 0.001 µM) is reported as 51.9%, the remaining activity at 0.0002 µM [2] is reported as 49.3% and the remaining activity at 0.002 µM ([3]; 0.002 µM) is reported as 50.7%. The remaining activity at 0.0001 µM ([4]; 0.0001 µM) was 59.5%, the “β-Glucosidase activity % of control” value ([5]; 0.2 µM) was 57.8% and the “inhibitory effect on β-glucosidase and transferase activity (especially on GBA2)” value [6] was “considerable inhibitory effect”. The remaining activity at 0.001 µM ([7]; 0.001 µM) was 47.3% and the remaining activity at 0.0006 µM ([8]; 0.0006 µM) was 49.4%.

For `OC[C@H]1NC[C@H](O)[C@@H](O)[C@@H]1O` [1-Deoxynojirimycin], the “male infertility and globozoospermia” value [9] is given as “causes male infertility and globozoospermia”.

With `O[C@H]1[C@H](O)[C@@H](O)[C@@H]2O[C@@H]2[C@@H]1O` (racemic) [Conduritol B epoxide, reference compound] the “β-Glucosidase activity % of control” value ([1]; 50 µM) was 46.9%, the remaining activity at 1000 µM ([2]; 1000 µM, human enzyme expressed in COS-7-cells) was 55.7% and the remaining activity at 2000 µM ([3]; 2000 µM) was 64.6%. For the same molecule, the remaining activity at 1000 µM ([4]; 1000 µM) was 44.9%, the “β-Glucosidase activity % of control” value ([5]; 20 µM) was 58.9% and the remaining activity at 2000 µM ([7]; 2000 µM) was 48.6%. The remaining activity at 2000 µM ([8]; 2000 µM) was 60%.

In the case of `CCCCN1C[C@H](O)[C@@H](O)[C@H](O)[C@H]1CO` [Butyl-dNM, N-butyldeoxynojirimycin], the globozoospermia [10] is listed as “causes globozoospermia”.
